Experimental findings from patent US8063204B2, “Benzothiazole and benzoxazole linked pyrrolo[2,1-c] [1, 4] benzodiazepine hybrids as novel antitumour agents and process for the preparation thereof” (Council of Scientific & Industrial Research, priority 2007, dated 2011) are described below.

Assay [1] has as its system Melanoma. Kind of assay: NCI in vitro anticancer screen, SRB assay, melanoma panel. Conditions: average of six to nine cell lines, 48 h; for GI50: Homo sapiens, read-out: Log10 GI50 (converted). It is filed as cell-based, human. As to the method:
(§1) Anticancer activity: In vitro biological activity studies were carried out at the National Cancer Institute (USA).
(§2) The compounds were evaluated for in vitro anticancer activity against sixty human tumour cells derived from nine cancer types (leukemia, non-small-cell lung, colon, CNS, melanoma, ovarian, prostate, and breast cancer) as shown in Table 3. For each compound, dose response curves for each cell line were measured at a minimum of five concentrations at 10 fold dilutions. A protocol of 48 h continuous drug exposure was used and a sulforhodamine B (SRB) protein assay was used to estimate cell viability or growth. The concentration causing 50% cell growth inhibition (GI50), total cell growth inhibition (TGI 0% growth) and 50% cell death (LC50, −50% growth) compared with the control was calculated.
On the technique in general: In SRB staining, fixed cells bind dye roughly in proportion to their protein.

Assay [2] has as its system Renal. Put plainly: NCI in vitro anticancer screen, SRB assay, renal panel. It is filed as cell-based, human. The settings on record: average of six to nine cell lines, 48 h; for GI50: Homo sapiens, read-out: Log10 GI50 (converted). The method, then: as §1, §2
In assay [3] the test system is Non-small-cell-lung. Put plainly: NCI in vitro anticancer screen, SRB assay, non-small-cell lung panel. It is filed as cell-based, human. The settings on record: average of six to nine cell lines, 48 h; for GI50: Homo sapiens, read-out: Log10 GI50 (converted). As to the method: as §1, §2
Assay [4] has as its system sixty human tumour cells derived from nine cancer types. Kind of assay: cells. It is filed as cell-based. Conditions: for Log10GI50 mean graph midpoint (MG_MID) / Log10LC50 mean graph midpoint (MG_MID) / Log10TGI mean graph midpoint (MG_MID): 48 h continuous drug exposure, SRB, mean over human tumour cell lines; for log10 GI50 anticancer activity, range over nine cancer cell types: range across nine cancer cell type. As to the method:
as §1, §2

Assay [5] relates to Ovarian. Kind of assay: NCI in vitro anticancer screen, SRB assay, ovarian panel. The settings on record: average of six to nine cell lines, 48 h; for GI50: Homo sapiens, read-out: Log10 GI50 (converted). It is filed as cell-based, human. The method, then: as §1, §2
For assay [6], the system named is Breast. Kind of assay: NCI in vitro anticancer screen, SRB assay, breast panel. It is filed as cell-based, human. The settings on record: average of six to nine cell lines, 48 h; for GI50: Homo sapiens, read-out: Log10 GI50 (converted). The method, then:
as §1, §2

Assay [7] concerns Leukemia. Kind of assay: NCI in vitro anticancer screen, SRB assay, leukemia panel. It is filed as cell-based, human. Conditions: average of six to nine cell lines, 48 h; for GI50: Homo sapiens, read-out: Log10 GI50 (converted). As to the method: as §1, §2
Assay [8] deals with duplex-form calf thymus DNA (CT-DNA). Kind of assay: Thermal denaturation studies with calf thymus DNA (DNA binding affinity). Conditions: [PBD]:[DNA] molar ratio 1:5, CT-DNA 100 μM, ligand 20 μM, sodium phosphate buffer pH 7.00; for ΔTm after incubation at 37° C. for 0 h: 0 h incubation; for ΔTm after incubation at 37° C. for 18 h: 18 h incubation. As to the method:
Compounds have been subjected to thermal denaturation studies with duplex-form calf thymus DNA (CT-DNA) using an modification of a reported procedure (Newman, M. S. Carcinog-compr. Surv. 1976, 1, 203; (b) Hecht, S. S.; Loy, M.; Hoffman, Carcinog-compr. Surv. 1976, 1, 325). Working solutions in aqueous buffer (10 mM NaH2PO4/Na2HPO4, 1 mM Na2EDTA, pH 7.00+0.01) containing CT-DNA (100 μm in phosphate) and the PBD (20 μm) have been prepared by addition of concentrated PBD solutions in DMSO to obtain a fixed [PBD]/[DNA] molar ratio of 1:5. The DNA-PBD solutions have been incubated at 37° C. for 0 and 18 h prior to analysis. Samples have been monitored at 260 nm using a Beckman DU-800 spectrophotometer fitted with high performance temperature controller, and heated at 1° C. min^−1 in the 40-110° C. range. DNA helix→coil transition temperatures (Tm) have been obtained from the maxima in the d(A260)/dT derivative plots. Drug-induced alterations in DNA melting behavior are given by: ΔTm=Tm(DNA+PBD)−Tm(DNA alone), where the Tm value for the PBD-free CT-DNA is 69.1±0.01.
The DNA binding activity for these novel C8-linked benzothiazole, benzoxazole-PBD hybrids has been examined by thermal denaturation studies using calf thymus (CT) DNA. […] The data for the compounds 9a-h is included in Table 1 for comparison.

Assay [9] deals with CNS. Put plainly: NCI in vitro anticancer screen, SRB assay, CNS panel. It is filed as cell-based, human. The settings on record: average of six to nine cell lines, 48 h; for GI50: Homo sapiens, read-out: Log10 GI50 (converted). The method, then: as §1, §2
Assay [10] has as its system Colon. Kind of assay: NCI in vitro anticancer screen, SRB assay, colon panel. It is filed as cell-based, human. The settings on record: average of six to nine cell lines, 48 h; for GI50: Homo sapiens, read-out: Log10 GI50 (converted). As to the method:
as §1, §2

Assay [11] deals with Prostate. Put plainly: NCI in vitro anticancer screen, SRB assay, prostate panel. It is filed as cell-based, human. Conditions: average of six to nine cell lines, 48 h; for GI50: Homo sapiens, read-out: Log10 GI50 (converted). The method, then:
as §1, §2

[12] abbreviates: against nine human tumor cell lines.

Take `COc1cc2c(cc1OCCCCOc1ccc(-c3nc4ccccc4s3)cc1)N=C[C@@H]1CCCN1C2=O` [Compound 9a, 7-Methoxy-8-{4-[4-(1,3-benzothiazol-2-yl)phenoxy]butyl}oxy-(11aS)-1,2,3,11a-tetrahydro-5H-pyrrolo[2,1-c][1,4]benzodiazepin-5-one]: the “Log10 GI50” value is −6.10 mol/L in [1]; −6.33 mol/L in [2]; −6.12 mol/L in assay [3]; −6.08 mol/L in assay [5]; −6.43 mol/L in [6]; −6.73 mol/L in [7]. Further, the “Log10 GI50” value in assay [9] is −6.20 mol/L; in assay [10], −6.38 mol/L; in assay [11], −6.55 mol/L. Moreover, the “Log10GI50 mean graph midpoint (MG_MID)” value in assay [4] is recorded as −6.30. Also, the “Log10LC50 mean graph midpoint (MG_MID)” value in assay [4] is listed as −4.75. For the same compound, in assay [4], the “Log10TGI mean graph midpoint (MG_MID)” value is recorded as −5.63. Besides, the LC50 (50% cell kill) in assay [4] (Homo sapiens, read-out: log10 LC50 mean graph midpoint value (converted)) was 17.8 µM. The “log10 GI50 mean graph midpoint value” in [4] (setting [12]) is −6.30 mol/lit. Moreover, the “log10 TGI mean graph midpoint value” in assay [4] (setting [12]) was −5.63 mol/lit. The “log10 GI50 anticancer activity, range over nine cancer cell types” value in assay [4] was −6.08 to −6.73 mole/lit. Also, the “ΔTm after incubation at 37° C. for 0 h” value in assay [8] was 0.5 °C. Besides, the “ΔTm after incubation at 37° C. for 18 h” value in assay [8] was 0.5 °C.
A word on the GI50: it is the concentration giving 50% growth inhibition. Regarding `COc1cc(-c2nc3ccccc3s2)ccc1OCCCCOc1cc2c(cc1OC)C(=O)N1CCC[C@H]1C=N2` [Compound 9b, 7-Methoxy-8-{4-[4-(1,3-benzothiazol-2-yl)-2-methoxyphenoxy]butyl}oxy-(11aS)-1,2,3,11a-tetrahydro-5H-pyrrolo[2,1-c][1,4]benzodiazepin-5-one], the GI50 in assay [1] was 1170 nM; in [2], 851 nM; in assay [3], 1230 nM; in assay [5], 1410 nM; in [6] it was 646 nM; in assay [7] it was 398 nM. For the same compound, the GI50 was 1020 nM in [9], 759 nM in [10] and 355 nM in [11]. Moreover, the “Log10GI50 mean graph midpoint (MG_MID)” value in assay [4] is −6.07. Moreover, in assay [4], the “Log10LC50 mean graph midpoint (MG_MID)” value is −4.67. The “Log10TGI mean graph midpoint (MG_MID)” value in [4] is −5.47. Further, the “log10 GI50 anticancer activity, range over nine cancer cell types” value in assay [4] is on record as −5.85 to −6.45 mole/lit. Besides, in assay [8], the “ΔTm after incubation at 37° C. for 0 h” value was 0.5 °C. In addition, in [8], the “ΔTm after incubation at 37° C. for 18 h” value amounted to 0.5 °C.
Consider `COc1cc2c(cc1OCCCCCOc1ccc(-c3nc4ccccc4s3)cc1)N=C[C@@H]1CCCN1C2=O` [Compound 9c, 7-Methoxy-8-{5-[4-(1,3-benzothiazol-2-yl)phenoxy]pentyl}oxy-(11aS)-1,2,3,11a-tetrahydro-5H-pyrrolo[2,1-c][1,4]benzodiazepin-5-one], for which the GI50 in assay [1] is 692 nM; in [2], 794 nM; in [3], 851 nM; in assay [5] it was 1350 nM; in assay [6] it was 525 nM; in [7], 224 nM. The figures for the GI50 in assay [9], in assay [10] and in assay [11] were 1120 nM, 676 nM and 288 nM, respectively. Further, the “Log10GI50 mean graph midpoint (MG_MID)” value in [4] is reported as −6.15. In assay [4], the “Log10LC50 mean graph midpoint (MG_MID)” value is recorded as −4.35. Moreover, the “Log10TGI mean graph midpoint (MG_MID)” value in [4] is −5.30. The “log10 GI50 anticancer activity, range over nine cancer cell types” value in [4] is recorded as −5.87 to −6.65 mole/lit. In addition, in assay [8], the “ΔTm after incubation at 37° C. for 0 h” value turned out to be 4.1 °C. The “ΔTm after incubation at 37° C. for 18 h” value in assay [8] was found to be 4.3 °C.
With `COc1cc(-c2nc3ccccc3s2)ccc1OCCCCCOc1cc2c(cc1OC)C(=O)N1CCC[C@H]1C=N2` [Compound 9d, 7-Methoxy-8-{5-[4-(1,3-benzothiazol-2-yl)-2-methoxyphenoxy]pentyl}oxy-(11aS)-1,2,3,11a-tetrahydro-5H-pyrrolo[2,1-c][1,4]benzodiazepin-5-one], the concentration for 50% growth inhibition (GI50) in assay [1] was 83.2 nM; in assay [2], 110 nM; in [3], 95.5 nM; in [5], 162 nM; in assay [6] it was 56.2 nM; in assay [7] it was 30.9 nM. For the same compound, the GI50 in [9] was 100 nM; in [10], 83.2 nM; in assay [11], 33.9 nM. In addition, the “Log10GI50 mean graph midpoint (MG_MID)” value in [4] is recorded as −7.09. Moreover, the “Log10LC50 mean graph midpoint (MG_MID)” value in assay [4] is listed as −4.37. Besides, the “Log10TGI mean graph midpoint (MG_MID)” value in [4] is listed as −5.78. Moreover, the “log10 GI50 anticancer activity, range over nine cancer cell types” value in assay [4] was −6.79 to −7.51 mole/lit. Further, the “ΔTm after incubation at 37° C. for 0 h” value in assay [8] turned out to be 6.2 °C. In [8], the “ΔTm after incubation at 37° C. for 18 h” value stood at 6.3 °C.
`COc1cc2c(cc1OCCCCCOc1ccc(-c3nc4ccccc4o3)cc1)N=C[C@@H]1CCCN1C2=O` [Compound 9e, 7-Methoxy-8-{5-[4-(1,3-benzoxazol-2-yl)phenoxy]pentyl}oxy-(11aS) 1,2,3,11a-tetra-hydro-5H-pyrrolo[2,1-c][1,4]benzodiazepin-5-one]: in [8], the “ΔTm after incubation at 37° C. for 0 h” value worked out at 0.5 °C and the “ΔTm after incubation at 37° C. for 18 h” value amounted to 0.5 °C.
On to `COc1cc(-c2nc3ccccc3o2)ccc1OCCCCCOc1cc2c(cc1OC)C(=O)N1CCC[C@H]1C=N2` [Compound 9f, 7-Methoxy-8-{5-[4-(1,3-benzoxazol-2-yl)-2-methoxyphenoxy]pentyl}oxy-(11aS) 1,2,3,11a-tetra-hydro-5H-pyrrolo[2,1-c][1,4]benzodiazepin-5-one], for which, in assay [8], the “ΔTm after incubation at 37° C. for 0 h” value came out at 2.1 °C and the “ΔTm after incubation at 37° C. for 18 h” value was 4.2 °C.
The matching figures for `COc1cc2c(cc1OCCCCCC(=O)Nc1ccc(-c3nc4ccccc4s3)cc1)N=C[C@@H]1CCCN1C2=O` [Compound 9g, 7-Methoxy-8-{5-[N^1-(4-(1,3-benzothiazol-2-yl)phenyl)]pentanecarboxamide}oxy-(11aS)-1,2,3,11a-tetra-hydro-5H-pyrrolo[2,1-c][1,4]benzodiazepin-5-one]: 4.1 °C and 4.3 °C.
The matching figures for `COc1cc2c(cc1OCCCCCC(=O)Nc1ccc(-c3nc4ccc(F)cc4s3)cc1)N=C[C@@H]1CCCN1C2=O` [Compound 9h, 7-Methoxy-8-{5-[N^1-(4-(6-fluoro-1,3-benzothiazol-2-yl)phenyl)]pentanecarboxamide}oxy-(11aS)-1,2,3,11a-tetra-hydro-5H-pyrrolo[2,1-c][1,4]benzodiazepin-5-one]: 4.2 °C and 2.3 °C.
The matching figures for `COc1cc2c(cc1O)N=CC1CCCN1C2=O` (stereo not shown) [DC-81, reference compound]: 0.3 °C and 0.7 °C.
